Assay results: PubChem BioAssay (NCI)
“And” between values parts separate entries of the source, which are not always exact repeats. Equal values may be shown once.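 Cultured in 96-well plates, cells were exposed to test compound for 48 hours across five concentrations. Here, GI50 denotes the concentration required for 50% inhibition of growth. TGI: concentration producing complete growth inhibition.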

Tests used:
Assay in all cases: NCI anticancer screen, dose series, 48 h
ACHN renal = tested on: ACHN renal
HCT-116 colon = tested on: HCT-116 colon
HL-60(TB) leukemia = tested on: HL-60(TB) leukemia
IGROV1 ovarian = tested on: IGROV1 ovarian
K-562 leukemia = tested on: K-562 leukemia
MDA-MB-231 breast = tested on: MDA-MB-231 breast
NCI-H23 lung = tested on: NCI-H23 lung
SF-295 CNS = tested on: SF-295 CNS
SN12C renal = tested on: SN12C renal
TK-10 renal = tested on: TK-10 renal
UO-31 renal = tested on: UO-31 renal

| SMILES | TGI (ACHN renal) | TGI (HCT-116 colon) | TGI (HL-60(TB) leukemia) | TGI (IGROV1 ovarian) | TGI (K-562 leukemia) | TGI (MDA-MB-231 breast) | TGI (NCI-H23 lung) | TGI (SF-295 CNS) | TGI (SN12C renal) | TGI (TK-10 renal) | TGI (UO-31 renal) | GI50 (HL-60(TB) leukemia) | GI50 (UO-31 renal) |
| --- | --- | --- | --- | --- | --- | --- | --- | --- | --- | --- | --- | --- | --- |
| Cc1ccc(NNc2cc(=O)[nH]c(=O)[nH]2)cc1Cl | 21.4 µM | 28.1 µM | 18.3 µM | 27.6 µM | > 100 µM | 29.9 µM | 31.1 µM | > 100 µM | > 100 µM | 33.1 µM | 15.3 µM | – | – |
| C=C(Br)C(Cl)(CBr)CCC(Br)C(C)(C)Cl (centres undefined) | > 10 µM | > 10 µM | > 10 µM | > 10 µM | > 10 µM | > 10 µM | > 10 µM | > 10 µM | > 10 µM | > 10 µM | > 10 µM | – | – |
| Cc1ccc(N2C(=O)CC(=O)N(NC(=O)C(C)Oc3ccccc3C)C2=S)cc1 (centres undefined) | > 100 µM | > 100 µM | > 100 µM | > 100 µM | > 100 µM | > 100 µM | > 100 µM | > 100 µM | > 100 µM | > 100 µM | > 100 µM | – | – |
| CN(C)CCCNC(=O)CNC(=O)c1cc(NC(=O)c2cc(NC(=O)c3cc(NC(=O)CCNC(=O)c4cc(NC(=O)c5cc(NC(=O)c6nccn6C)cn5C)cn4C)cn3C)cn2C)cn1C | > 100 µM | > 100 µM | 94.1 µM | > 100 µM | > 100 µM | > 100 µM | > 100 µM | > 100 µM | > 100 µM | > 100 µM | > 100 µM | – | – |
| CCC(/C=C/c1ccccc1)=N\NC(=S)N/N=C(/C=C/c1ccccc1)CC | > 100 µM | > 100 µM | 62.7 µM | > 100 µM | 98.8 µM | > 100 µM | > 100 µM | > 100 µM | > 100 µM | > 100 µM | > 100 µM | – | – |
| C/C(=N/NC(=S)N(Cc1ccccn1)Cc1ccccn1)c1cnccn1 | 2.39 µM | 14.2 µM | > 68.2 µM | 2.78 µM | > 100 µM | 21.7 µM | 11.4 µM | 9.37 µM | 12.9 µM | 19.2 µM | 0.525 µM | – | – |
| O=C1NC(N/N=C/C(O)C(O)C(O)C(O)CO)=N/C1=C\c1cccs1 (centres undefined) | > 100 µM | > 100 µM | > 100 µM | > 100 µM | > 100 µM | > 100 µM | > 100 µM | > 100 µM | > 100 µM | > 100 µM | – | – | – |
| Cc1ccnc2c1c(=O)c1ccccc1n2C | 56.8 µM | > 100 µM | > 100 µM | > 100 µM | > 100 µM | > 100 µM | > 100 µM | > 100 µM | > 100 µM | 89.8 µM | 36.5 µM | – | – |
| CC1CSc2nc3[nH]c(=S)[nH]c3c(=O)n2C1 (centres undefined) | > 100 µM | > 100 µM | > 100 µM | > 100 µM | > 100 µM | > 100 µM | > 100 µM | > 100 µM | > 100 µM | > 100 µM | > 100 µM | – | – |
| C#CCSc1cnc2ccccc2c1Sc1c[nH]c2ccccc2c1=O | 36.7 µM | 32.5 µM | 88.9 µM | 20 µM | > 100 µM | > 100 µM | > 100 µM | > 100 µM | 40.7 µM | > 100 µM | 5.99 µM | – | – |
| CC(C)(N=NC(C)(C)C1=NCCN1)C1=NCCN1 | > 100 µM | > 100 µM | > 100 µM | > 100 µM | > 100 µM | > 100 µM | > 100 µM | > 100 µM | > 100 µM | > 100 µM | > 100 µM | > 100 µM | – |
| O=C(CN=C(CN(c1ccccc1)c1ccccc1)Oc1c([N+](=O)[O-])cc([N+](=O)[O-])cc1[N+](=O)[O-])N1CCNCC1 | > 100 µM | > 100 µM | > 100 µM | > 100 µM | > 100 µM | > 100 µM | > 100 µM | > 100 µM | > 100 µM | > 100 µM | – | – | – |
| COc1ccc(C2c3cc4c(cc3OC(N3CCOCC3)C2C)OCO4)c(OC)c1 (centres undefined) | 93.8 µM | 15.8 µM | > 31.4 µM | > 100 µM | 25 µM | 32.5 µM | > 67.9 µM | 16.3 µM | 65.9 µM | 69.6 µM | 58.7 µM | – | – |
| COc1ccc(CN=C2Nc3ccncc3S(=O)(=O)N2c2ccccc2)cc1 | > 100 µM | > 100 µM | 36.8 µM | > 100 µM | 93.2 µM | > 100 µM | > 100 µM | > 100 µM | > 100 µM | 59.9 µM | > 100 µM | – | – |
| CC1C=C(NCC2(CO)CCC2)NC(N)=N1 (centres undefined) | > 100 µM | > 100 µM | > 100 µM | > 100 µM | > 100 µM | > 100 µM | > 100 µM | > 100 µM | > 100 µM | – | > 100 µM | – | – |
| O/N=C1\CC2(N3CCOCC3)CCC1(Cc1ccccc1)CC2 | 63.4 µM | 90.6 µM | > 100 µM | > 100 µM | > 100 µM | 67 µM | > 100 µM | 61.2 µM | > 100 µM | – | > 100 µM | – | – |
| O=C(O)c1cc2c(cc1S(=O)(=O)O)C1C(C3C2C2(Cl)C(Cl)=C(Cl)C3(Cl)C2(Cl)Cl)C2(Cl)C(Cl)=C(Cl)C1(Cl)C2(Cl)Cl (centres undefined) | > 100 µM | 32.3 µM | 79.9 µM | > 100 µM | > 100 µM | 50.9 µM | 73.3 µM | 60.2 µM | 46.4 µM | > 100 µM | > 100 µM | – | – |
| CCOC(=O)/C=C/[C@H](O[Si](c1ccccc1)(c1ccccc1)c1ccccc1)C(C)(C)C | > 31.6 µM | > 31.6 µM | > 100 µM | > 31.6 µM | > 31.6 µM | > 31.6 µM | > 31.6 µM | > 31.6 µM | > 31.6 µM | > 31.6 µM | > 31.6 µM | – | – |
| Cc1cc2nc3c(C(O)CO)nn(-c4ccccc4)c3nc2cc1C (centres undefined) | 32.1 µM | 36.6 µM | 45.8 µM | 43.9 µM | 59.3 µM | 55 µM | 54.7 µM | 35.7 µM | 32.4 µM | 35.4 µM | 36.1 µM | – | – |
| C=CC1(CBr)CCC(C(C)(C)Br)O1 (centres undefined) | 30.2 µM | 18.5 µM | 0.893 µM | 22.7 µM | > 25.9 µM | 28.3 µM | 19.9 µM | 24.8 µM | 33.1 µM | 28.5 µM | 25.7 µM | – | – |
| O=C(c1ccco1)N1CCN(C(=O)c2ccco2)C1=S | 22.3 µM | 23.2 µM | 7.16 µM | 27.4 µM | 16.5 µM | 25.4 µM | 50.3 µM | 35.8 µM | 16.4 µM | 19.8 µM | 10.1 µM | – | – |
| COc1ccc(NC(C)=O)c(C(=O)CCNC(C)=O)c1 | > 100 µM | > 100 µM | > 100 µM | > 100 µM | – | > 100 µM | > 100 µM | > 100 µM | > 100 µM | > 100 µM | > 100 µM | – | – |
| CCOC(=O)NNC1(SC)NC(=O)c2c(cc(Cl)oc2=O)O1 (centres undefined) | 4.79 µM | 3.08 µM | 3.6 µM | 14.5 µM | 9.07 µM | 25.1 µM | 13.1 µM | 25.9 µM | 14.7 µM | 10.1 µM | 3.35 µM | – | – |
| CC(=O)NC1CCC(NC(=O)OC(C)(C)C)C(NC(=O)OC(C)(C)C)C1 (centres undefined) | > 100 µM | > 100 µM | > 100 µM | > 100 µM | > 100 µM | > 100 µM | > 100 µM | > 100 µM | > 100 µM | > 100 µM | > 100 µM | – | – |
| COc1cccc2c1C(=O)c1ccc3cc(CO)cc(O)c3c1C2=O | 3.7 µM | 0.787 µM | 0.461 µM | 3.33 µM | 3.74 µM | 2.58 µM | 1.18 µM | 7.44 µM | 2.86 µM | 8.43 µM | 7.32 µM | – | – |
| C=CCOc1ccc(C2c3c([nH][nH]c3=O)CC(C)(O)C2C(=O)OC)cc1OC (centres undefined) | > 100 µM | > 100 µM | > 100 µM | > 100 µM | – | > 100 µM | > 100 µM | > 100 µM | > 100 µM | > 100 µM | > 100 µM | – | – |
| Cc1ccc(-c2c(C#N)c(S)n(NS(=O)(=O)c3ccccc3)c(=O)c2C#N)cc1 | 82 µM | > 100 µM | 41.9 µM | 85.4 µM | > 100 µM | > 100 µM | > 100 µM | > 100 µM | > 100 µM | 65.7 µM | 51.4 µM | – | – |
| CCCCN(CCCC)c1ccc(N=Nc2ccc(S(=O)(=O)O)cc2)cc1 | > 100 µM | 29.4 µM | 53.1 µM | 43.1 µM | > 100 µM | 64.7 µM | 47.2 µM | > 100 µM | 85 µM | > 100 µM | > 100 µM | – | – |
| O=[N+]([O-])c1cccc2nc3ccccc3c(NCCNCCO)c12 | 0.0422 µM and 0.0311 µM | 0.107 µM | 0.109 µM | 0.0233 µM and 0.0569 µM | 0.0448 µM | 0.0668 µM and 0.0816 µM | 0.00448 µM | 0.0367 µM and 0.133 µM | 0.173 µM | – | 0.392 µM and 0.192 µM | – | 0.0448 µM |
| CC1(C)OC[C@@]2([C@@H]3CC[C@@H](C3)C2(C)C)N1O | > 100 µM | > 100 µM | > 100 µM | > 100 µM | > 100 µM | > 100 µM | > 100 µM | > 100 µM | > 100 µM | > 100 µM | – | – | – |
